“And” between values parts separate entries of the source, which are not always exact repeats. Equal values may be shown once. Read-outs that look alike come from different tables or passages of the source.
Assays:
[1] = test system: S. aureus strains BK18 and B9377; assay: Generation and confirmation of antibiotic persisters (CFU over time); type: cell-based, Staphylococcus aureus; conditions: for CFU/mL, generation of persisters / CFU/mL, confirmation of persisters (regrown, re-exposed): Vancomycin 100X; for CFU/mL, generation of persisters: Daptomycin 50X MIC; for CFU/mL, confirmation of persisters (regrown, re-exposed): Daptomycin 50×
Experimental: (§1) Persisters of S. aureus BK18 and B9377 and S. epidermidis strain B9470 were generated as per protocol described by Lechner, et al (Staphylococcus aureus persisters tolerant to bactericidal antibiotics. Lechner, et al. (2012) J Mol Microbiol Biotechnol; 22(4):235-44). Briefly, colonies were suspended in LB broth and allowed to grow at 37° C., 200 rpm for ˜2 hours. The cultures were pelleted, resuspended in MHB and OD600 was adjusted to 0.5 to 1.0 OD (˜2 to 5×10^8 CFU/mL). […] The test tubes were incubated at 37° C., 200 rpm, and 250 μL was sampled out at 4, 8, and 24 hr time points. This aliquot was pelleted, washed in saline and resuspended in equal volume of saline, diluted and plated on LB agar. Rapid decrease in CFUs, followed by rather stable values for up to 24 hrs, indicated the presence of Daptomycin/Vancomycin tolerant persisters.
(§2) After sampling for P128 and antibiotic activity, the rest of the sample was pelleted, washed in saline and resuspended into fresh media (LB). Allowed to grow at 37° C., 200 rpm until it reaches 1 OD and then the same steps followed as done for generation of persisters. A biphasic growth curve similar to that obtained during generation of persisters would indicate the tolerance to be phenotypic and not genotypic.

S. epidermidis = assay: MIC and checkerboard synergy (broth microdilution) on planktonic cells; type: cell-based, Staphylococcus epidermidis; conditions: Staphylococcus epidermidis
Experimental: Bacterial cultures at a final cell number of 5×10^5 CFU/mL was added to wells of 96-well microtiter plates (precoated with 0.5% BSA), containing two-fold dilutions of P128 and the second drug in cation adjusted Mueller Hinton Broth (CAMHB). The plates were incubated at 37° C. for 24 h and the individual MICs and the combination MICs were read. The fractional inhibitory concentration index (FICI) was determined using the following equation: FICI=(MIC of drug A in the combination/MIC of drug A alone)+(MIC of drug B in the combination/MIC of drug B alone). The combination was considered to be synergistic when the FICI was ≤0.5; additive when FICI was 0.5-1.0; indifferent when FICI was 1-4 and antagonistic when FICI≥4.
S. epidermidis culture at a final cell number of 5×10^5 CFU/mL was added to wells of 96-well microtiter plates (precoated with 0.5% BSA), containing two-fold dilutions of P128 and either Daptomycin or Oxacillin in cation adjusted Mueller Hinton Broth (CAMHB). CAMHB was supplemented with 50 µg/mL Ca^++ for daptomycin assay. The plates were incubated at 37° C. for 24 h and the individual MICs and the combination MICs were read. The fractional inhibitory concentration index (FICI) was determined using the following equation: FICI=(MIC of drug A in the combination/MIC of drug A alone)+(MIC of drug B in the combination/MIC of drug B alone). The combination was considered to be synergistic when the FICI was ≤0.5; additive when FICI was between 0.5-1.0; indifferent when FICI was between 1-4 and antagonistic when FICI was ≥4. The experiments were performed in triplicate and repeated twice.

[2] = test system: MRSA MW2 biofilm on catheter; assay: In vivo biofilm on catheter implanted subcutaneously in neutropenic mice; conditions: Table VB2: Daptomycin 12.5 mg/kg sc 1 dose per day for 3 days; P128 800 μg per dose sc 3 doses/day for 3 days; or both
Experimental: Eight-nine week old female BALB/c mice 25 g were rendered neutropenic with cyclophosphamide and were operated under ketamine-xylazine anesthesia. A 1-cm incision was made in the dorsal neck surface by aseptic technique and subcutaneous pouch was created. Catheter segments of 1 cm length pre-incubated with MRSA MW2 suspension (6×10^3 CFUs/mL) for 4 hrs, were placed in the subcutaneous space and the wounds were closed with suture thereafter. As uninfected control, one group of mice were surgically operated and a sterile catheter segment was placed in the cavity. At 24 hours post-catheter implantation, mice were treated with P128 (800 μg per animal, subcutaneously) or with the placebo (saline). Treatments were given thrice a day at 2 hr intervals for three days and 1 hr after the last treatment, the catheters were removed, biofilms were harvested and CFUs recovered were plated on culture media and enumerated. Catheters from a subset of animals were stained with 0.1% safranin, (which stains the bacteria) for 5 min.
For evaluation of synergy with daptomycin, mouse model of biofilm described above was used with few modifications. Eight-nine week old female BALB/c mice 25 g were rendered neutropenic with cyclophosphamide and were operated under ketamine-xylazine anesthesia. A 1-cm incision was made in the dorsal neck surface by aseptic technique and subcutaneous pouch was created. Catheter segments measuring 1 cm were placed in the subcutaneous space, and the wounds closed with suture. At 72 hours post-implantation. MRSA MW2 bacterial inoculum (2.1×10^7 CFU per animal) was injected subcutaneously onto the catheter. At 24 hrs post-challenge, animals were treated with either P128 (800 μg per animal, subcutaneous), or daptomycin (12.5 mg/kg, subcutaneous) or a combination of both. Daptomycin was given once every day for three days whereas P128 was administered thrice a day at 2 hr interval for three days. 1 hr after the last treatment, animals were euthanized and catheters were collected and recovered CFUs were enumerated.
Biofilms were also visualized by staining the catheters with 0.1% safranin.

[3] = test system: S. epidermidis strain B9470; assay: Generation and confirmation of antibiotic persisters (CFU over time); type: cell-based, Staphylococcus epidermidis; conditions: for CFU/mL, generation of persisters: Vancomycin 50X, Daptomycin 10X MIC; for CFU/mL, confirmation of persisters (regrown, re-exposed): head prints Vancomycin 100X, Daptomycin 50×
Experimental: as §1, §2

Structure (SMILES): CCCCCCCCCC(=O)N[C@@H](Cc1c[nH]c2ccccc12)C(=O)N[C@H](CC(N)=O)C(=O)N[C@@H](CC(=O)O)C(=O)N[C@@H]1C(=O)NCC(=O)N[C@@H](CCCN)C(=O)N[C@@H](CC(=O)O)C(=O)N[C@H](C)C(=O)N[C@@H](CC(=O)O)C(=O)NCC(=O)N[C@H](CO)C(=O)N[C@@H]([C@H](C)CC(=O)O)C(=O)N[C@@H](CC(=O)c2ccccc2N)C(=O)O[C@@H]1C [Daptomycin, daptomycin]
- CFU/mL, generation of persisters ([1]; B9377, 0 h): 2.5 × 10^8 CFU/mL
- CFU/mL, confirmation of persisters (regrown, re-exposed) ([1]; B9377, 0 h): 2.5 × 10^8 CFU/mL
- CFU/mL, generation of persisters ([1]; B9377, 4 h): 4 × 10^3 CFU/mL
- CFU/mL, confirmation of persisters (regrown, re-exposed) ([1]; B9377, 4 h): 6 × 10^3 CFU/mL
- CFU/mL, generation of persisters ([1]; B9377, 8 h): 1 × 10^3 CFU/mL
- CFU/mL, confirmation of persisters (regrown, re-exposed) ([1]; B9377, 8 h): 1 × 10^3 CFU/mL
- CFU/mL, generation of persisters ([1]; B9377, 24 h): 5.5 × 10^3 CFU/mL
- CFU/mL, confirmation of persisters (regrown, re-exposed) ([1]; B9377, 24 h): 9 × 10^2 CFU/mL
- CFU/mL, generation of persisters ([1]; BK18, 0 h): 2 × 10^8 CFU/mL
- CFU/mL, confirmation of persisters (regrown, re-exposed) ([1]; BK18, 0 h): 1 × 10^8 CFU/mL
- CFU/mL, generation of persisters ([1]; BK18, 4 h): 3 × 10^3 CFU/mL
- CFU/mL, confirmation of persisters (regrown, re-exposed) ([1]; BK18, 4 h): 3 × 10^2 CFU/mL
- CFU/mL, generation of persisters ([1]; BK18, 8 h): 1 × 10^3 CFU/mL
- CFU/mL, confirmation of persisters (regrown, re-exposed) ([1]; BK18, 8 h): 1 × 10^2 CFU/mL
- CFU/mL, generation of persisters ([1]; BK18, 24 h): 5 × 10^3 CFU/mL
- CFU/mL, confirmation of persisters (regrown, re-exposed) ([1]; BK18, 24 h): 6 × 10^2 CFU/mL
- Drop in CFU at the end of 4 h treatment ([1]; generation of persisters): 5 log
- MIC (S. epidermidis; ATCC12228, S. epidermidis ATCC 12228, read-out: MIC (drug alone)): 1 µg/mL
- MIC (S. epidermidis; S. epidermidis B9467, read-out: MIC (drug alone)): 2 µg/mL
- MIC (S. epidermidis; S. epidermidis B9468, read-out: MIC (drug alone)): 0.5 µg/mL
- MIC (S. epidermidis; S. epidermidis B9471, read-out: MIC (drug alone)): 2 µg/mL
- MIC (S. epidermidis; S. epidermidis B9472, read-out: MIC (drug alone)): 2 µg/mL
- MIC (S. epidermidis; S. epidermidis strains of Tables 7 and 8, read-out: MIC over the strains): 0.5 to 2 µg/mL
- CFU recovered from catheter biofilm, individual animals [2]: 4.9 CFU (Log10)/ml and 2.6 CFU (Log10)/ml and 3.0 CFU (Log10)/ml and 2.7 CFU (Log10)/ml
- CFU/mL, generation of persisters ([3]; B9470, 0 h): 3.2 × 10^7 CFU/mL
- CFU/mL, confirmation of persisters (regrown, re-exposed) ([3]; B9470, 0 h): 1 × 10^7 CFU/mL
- CFU/mL, generation of persisters ([3]; B9470, 2 h): 1 × 10^7 CFU/mL
- CFU/mL, confirmation of persisters (regrown, re-exposed) ([3]; B9470, 2 h): 9 × 10^4 CFU/mL
- CFU/mL, generation of persisters ([3]; B9470, 4 h): 2.3 × 10^6 CFU/mL
- CFU/mL, confirmation of persisters (regrown, re-exposed) ([3]; B9470, 4 h): 4 × 10^3 CFU/mL
- CFU/mL, generation of persisters ([3]; B9470, 8 h): 5 × 10^5 CFU/mL
- CFU/mL, confirmation of persisters (regrown, re-exposed) ([3]; B9470, 8 h): 6 × 10^2 CFU/mL
- CFU/mL, generation of persisters ([3]; B9470, 24 h): 3 × 10^6 CFU/mL
- CFU/mL, confirmation of persisters (regrown, re-exposed) ([3]; B9470, 24 h): 5 × 10^3 CFU/mL
